Measurements from patent publication US9682990B2, “Alcohol-, diol-, and carbohydrate-substituted indenoisoquinolines as topoisomerase I inhibitors” (Purdue Research Foundation, priority 2011, dated 2017).
Read-outs that look alike come from different tables or passages of the source. Marks after values point to notes of the source that are not given here.

Tests used:
[1] = system: cell lines derived from approximately 60 different human tumors; experiment: NCI initial one-dose screening assay; type: cell-based; settings: percentage of cell growth, one-dose assay at 10 μM
[2] = system: all human cancer cell lines successfully tested; experiment: NCI-60 cell line assay, mean-graph midpoint; type: cell-based; settings: for MGM (mean graph midpoint for growth inhibition): all human cancer cell lines tested, 10^−8 to 10^−4 molar; for GI50: read-out: MGM GI50
Method: Biological Results. The indenoisoquinoline analogues were tested for antiproliferative activity in the National Cancer Institute's Developmental Therapeutics Assay against cell lines derived from approximately 60 different human tumors. […] The cytotoxicities of the compounds to cultured cancer cells were measured in the National Cancer Institute's 60 cell line assay (a.k.a. NCI-60).

[3] = system: OVCAR-3 (Ovarian); experiment: NCI Developmental Therapeutics antiproliferative assay, OVCAR-3; type: cell-based, human
Method: (§1) Biological Results. The indenoisoquinoline analogues were tested for antiproliferative activity in the National Cancer Institute's Developmental Therapeutics Assay against cell lines derived from approximately 60 different human tumors. […] Results are reported in Table 2 as GI50 values for selected cell lines, and overall antiproliferative potency is quantified as a mean-graph midpoint (MGM).

[4] = system: SF-539 (CNS); experiment: NCI Developmental Therapeutics antiproliferative assay, SF-539; type: cell-based, human
Method: as §1

[5] = system: UACC-62 (Melanoma); experiment: NCI Developmental Therapeutics antiproliferative assay, UACC-62; type: cell-based, human
Method: (§2) Biological Results. The indenoisoquinoline analogues were tested for antiproliferative activity in the National Cancer Institute's Developmental Therapeutics Assay against cell lines derived from approximately 60 different human tumors.

[6] = system: DU-145 (Prostate); experiment: NCI Developmental Therapeutics antiproliferative assay, DU-145; type: cell-based, human
Method: as §2

[7] = system: MCF7 (Breast); experiment: NCI Developmental Therapeutics antiproliferative assay, MCF7; type: cell-based, human
Method: as §1

[8] = system: SN12C (Renal); experiment: NCI Developmental Therapeutics antiproliferative assay, SN12C; type: cell-based, human
Method: as §1

[9] = system: HOP-62 (Lung); experiment: NCI Developmental Therapeutics antiproliferative assay, HOP-62; type: cell-based, human
Method: as §2

[10] = system: HCT-116 (Colon); experiment: NCI Developmental Therapeutics antiproliferative assay, HCT-116; type: cell-based, human
Method: as §2

[11] = Homo sapiens, OVCAR-3, 50% growth inhibition, read-out: Cytotoxicity (GI50) Ovarian OVCAR-3
[12] = Homo sapiens, SF-539, 50% growth inhibition, read-out: Cytotoxicity (GI50) CNS SF-539
[13] = Homo sapiens, UACC-62, 50% growth inhibition, read-out: Cytotoxicity (GI50) Melanoma UACC-62
[14] = Homo sapiens, DU-145, 50% growth inhibition, read-out: Cytotoxicity (GI50) Prostate DU-145
[15] = Homo sapiens, MCF7, 50% growth inhibition, read-out: Cytotoxicity (GI50) Breast MCF7
[16] = Homo sapiens, SN12C, 50% growth inhibition, read-out: Cytotoxicity (GI50) Renal SN12C
[17] = Homo sapiens, HOP-62, 50% growth inhibition, read-out: Cytotoxicity (GI50) Lung HOP-62
[18] = Homo sapiens, HCT-116, 50% growth inhibition, read-out: Cytotoxicity (GI50) Colon HCT-116

Compound | Growth Percent [1] | MGM (mean graph midpoint for growth inhibition) [2] | GI50 [3] | GI50 [4] | GI50 [5] | GI50 [6] | GI50 [7] | GI50 [8] | GI50 [9] | GI50 [10] | also measured
O=C1c2ccccc2-c2c1c1ccccc1c(=O)n2C[C@@H](O)[C@@H](O)[C@H](O)[C@H](O)CO [Compound 17f, (2′R, 3′R, 4′R, 5′R)-5,6-Dihydro-6-(2′,3′,4′,5′,6′-pentahydroxyhexyl)-5,11-dioxo-11H-indeno[1,2-c]isoquinoline] | 69.35% | – | – | – | – | – | – | – | – | – | –
C[C@H](O)Cn1c2c(c3ccccc3c1=O)C(=O)c1ccccc1-2 [Compound 27b, (2′S)-5,6-Dihydro-6-(2′-hydroxypropyl)-5,11-dioxo-11H-indeno[1,2-c]isoquinoline] | 54.88% | – | – | – | – | – | – | – | – | – | –
O=C1c2ccccc2-c2c1c1ccc([N+](=O)[O-])cc1c(=O)n2C[C@H](O)CO [Compound 30, (2′S)-5,6-Dihydro-6-(2′,3′-dihydroxypropyl)-3-nitro-5,11-dioxo-11H-indeno[1,2-c]isoquinoline] | – | 0.156 ± 0.061 µM | – | – | – | – | – | – | – | – | GI50 [2]: 0.156 µM
(1′R)-5,6-Dihydro-6-(3′-hydroxy-1′-methylethyl)-5,11-dioxo-11H-indeno[1,2-c]isoquinoline [Compound 22b] | 78.60% | – | – | – | – | – | – | – | – | – | –
O=C1c2ccccc2-c2c1c1ccc([N+](=O)[O-])cc1c(=O)n2C[C@H](O)[C@@H](O)[C@H](O)[C@H](O)CO [Compound 19, (2′S,3′R,4′R,5′R)-5,6-Dihydro-6-(2′,3′,4′,5′,6′-pentahydroxyhexyl)-3-nitro-5,11-dioxo-11H-indeno[1,2-c]isoquinoline] | 58.05% | 4.60 ± 0.53 µM | – | – | – | – | – | – | – | – | GI50 [3, 11]: 4.26 µM; GI50 [4, 12]: 2.61 µM; GI50 [5, 13]: 2.98 µM; GI50 [6, 14]: 4.76 µM; GI50 [7, 15]: 0.88 µM; GI50 [8, 16]: 17.7 µM; GI50 [9, 17]: 7.35 µM; GI50 [10, 18]: 5.08 µM
O=C1c2ccccc2-c2c1c1ccccc1c(=O)n2C[C@H](O)[C@@H](O)[C@H](O)[C@H](O)CO [Compound 17c, (2′S,3′R,4′R,5′R)-5,6-Dihydro-6-(2′,3′,4′,5′,6′-pentahydroxyhexyl)-5,11-dioxo-11H-indeno[1,2-c]isoquinoline] | 97.16^e % | – | – | – | – | – | – | – | – | – | –
C[C@H](O)Cn1c2c(c3ccccc3c1=O)C(=O)c1ccccc1-2 [Compound 27c, (2′RS)-5,6-Dihydro-6-(2′-hydroxypropyl)-5,11-dioxo-11H-indeno[1,2-c]isoquinoline] | 50.24% | 7.9 µM | 16.2 µM | 6.76 µM | 6.16 µM | 4.36 µM | 3.8 µM | 3.98 µM | 3.46 µM | 5.75 µM | –
(1′RS)-5,6-Dihydro-6-(3′-hydroxy-2′-methylethyl)-5,11-dioxo-11H-indeno[1,2-c]isoquinoline [Compound 22c] | – | 15.6 ± 2.15 µM | 25.7 µM | 14.4 µM | 11.7 µM | 23.7 µM | 34.4 µM | 37.1 µM | 17.6 µM | 15.9 µM | –
C[C@@H](O)Cn1c2c(c3ccccc3c1=O)C(=O)c1ccccc1-2 [Compound 27a, (2′R)-5,6-Dihydro-6-(2′-hydroxypropyl)-5,11-dioxo-11H-indeno[1,2-c]isoquinoline] | 55.23% | 10.2 µM | 21.4 µM | 6.31 µM | 10.2 µM | 8.32 µM | 3.23 µM | 9.33 µM | 3.39 µM | 5.52 µM | –
O=C1c2ccccc2-c2c1c1ccccc1c(=O)n2C[C@@H](O)[C@H](O)[C@H](O)CO [Compound 17a, (2′R, 3′S, 4′R)-5,6-Dihydro-6-(2′,3′,4′,5′-tetrahydroxypentyl)-5,11-dioxo-11H-indeno[1,2-c]isoquinoline] | 58.44% | 19.9 µM | > 100 µM | 7.59 µM | 7.41 µM | – | 4.57 µM | 20 µM | 8.71 µM | – | –
COc1cc2c3c(n(C[C@H](O)CO)c(=O)c2cc1OC)-c1ccccc1C3=O [Compound 29, (2′S)-5,6-Dihydro-6-(2′,3′-dihydroxypropyl)-2,3-dimethoxy-5,11-dioxo-11H-indeno[1,2-c]isoquinoline] | – | 0.401 ± 0.055 µM | 0.287 µM | 0.214 µM | 0.144 µM | 0.419 µM | 0.097 µM | 0.501 µM | 0.336 µM | 0.23 µM | GI50 [2]: 0.401 µM
NCCCn1c2c(c3ccc([N+](=O)[O-])cc3c1=O)C(=O)c1cc3c(cc1-2)OCO3 [reference compound] | – | – | – | – | – | – | – | – | – | – | GI50 ([2]; Homo sapiens, Table 3, NCI-60, unit inferred): 0.09 ± 0.04 µM
NC[C@H](O)Cn1c2c(c3ccccc3c1=O)C(=O)c1ccccc1-2 [Compound 27d, (2′RS)-5,6-Dihydro-6-(3′-amino-2′-hydroxypropyl)-5,11-dioxo-11H-indeno[1,2-c]isoquinoline] | −23.49% | 0.348 ± 0.109 µM | 1.32 µM | 0.344 µM | 0.318 µM | 0.13 µM | 0.198 µM | 0.206 µM | 0.276 µM | 0.263 µM | GI50 [2]: 0.348 µM
O=C1c2ccccc2-c2c1c1ccccc1c(=O)n2C[C@H](O)[C@@H](O)[C@H](O)CO [Compound 17d, (2′S,3′R,4′R)-5,6-Dihydro-6-(2′,3′,4′,5′-tetrahydroxypentyl)-5,11-dioxo-11H-indeno[1,2-c]isoquinoline] | 34.91% | 4.07 µM | 24 µM | 7.94 µM | – | – | 1.74 µM | 2.24 µM | 3.23 µM | – | –
O=C1c2ccccc2-c2c1c1ccccc1c(=O)n2C[C@H](O)[C@@H](O)[C@@H](O)CO [Compound 17g, (2′S,3′R,4′S,5′R)-5,6-Dihydro-6-(2′,3′,4′,5′-tetrahydroxypentyl)-5,11-dioxo-11H-indeno[1,2-c]isoquinoline] | 67.99% | – | – | – | – | – | – | – | – | – | –
O=C1c2ccccc2-c2c1c1ccccc1c(=O)n2C[C@@H](O)[C@@H](O)[C@H](O)CO [Compound 17e, (2′R,3′R,4′R)-5,6-Dihydro-6-(2′,3′,4′,5′-tetrahydroxypentyl)-5,11-dioxo-11H-indeno[1,2-c]isoquinoline] | 50.62% | 7.76 µM | 13.2 µM | 11.2 µM | 6.31 µM | – | 1.9 µM | 5.01 µM | 6.46 µM | – | –
O=C1c2ccccc2-c2c1c1ccccc1c(=O)n2C[C@H](O)[C@H](O)[C@H](O)[C@H](O)CO [Compound 17h, (2′S,3′S,4′R,5′R)-5,6-Dihydro-6-(2′,3′,4′,5′,6′-pentahydroxyhexyl)-5,11-dioxo-11H-indeno[1,2-c]isoquinoline] | 49.31% | 5.75 µM | 13.8 µM | 5.75 µM | 2.95 µM | 3.31 µM | 1.78 µM | 3.39 µM | 3.23 µM | 4.17 µM | –
O=C1c2ccccc2-c2c1c1ccccc1c(=O)n2CC(O)CO (racemic) [Compound 12c, (2′RS)-5,6-Dihydro-6-[(2′,3′-dihydroxypropyl)]-5,11-dioxo-11H-indeno[1,2-c]isoquinoline] | – | 5.13 µM | – | – | – | – | – | – | – | – | GI50 [3, 11]: 18.6 µM; GI50 [4, 12]: 5.89 µM; GI50 [5, 13]: 7.58 µM; GI50 [6, 14]: 2.88 µM; GI50 [7, 15]: 3.55 µM; GI50 [8, 16]: 2.95 µM; GI50 [9, 17]: 7.76 µM; GI50 ([2]; Homo sapiens): 5.13 µM; GI50 [10, 18]: 4.36 µM
O=C1c2ccccc2-c2c1c1ccccc1c(=O)n2C[C@H](O)[C@H](O)[C@H](O)CO [Compound 17b, (2′S,3′S,4′R)-5,6-Dihydro-6-(2′,3′,4′,5′-tetrahydroxypentyl)-5,11-dioxo-11H-indeno[1,2-c]isoquinoline] | 17.28% | 3.31 µM | 13.5 µM | 2.14 µM | 3.23 µM | – | 1.38 µM | 2.4 µM | – | – | –
